Literature values in patent US6384081B2, “Treatment of diseases of the eye characterized by the formation of metalloproteinase” (priority 1998, dated 2002).
Where two headings read alike, the source gives them in different places. Blank lines part the entries; values can stand above or below the molecule they belong to.

Experiments:
[1] = target: collagenase purified from culture medium of alkali-burned rabbit corneas
[2] = rabbit eye, 7 mg/kg intravenously
[3] = test system: epithelial healing in the rabbit alkali-burn model; settings: for mean percentage of epithelial defects: at 14 days

Molecule: CCCC(NC(CC(C)C)C(=O)NC(Cc1ccccc1)C(=O)NC(C)C(N)=O)C(=O)O (stereo not drawn) [CH3(CH2)2(DL)CH-(COOH)-Leu-Phe-Ala-NH2]
IC50 ([1]; substrate not stated, read-out: IC50): 25 µM

Molecule: CC(C)CC(CS)C(=O)NC(Cc1ccccc1)C(=O)NC(C)C(N)=O (stereo not drawn) [HSCH2(DL)CH[CH2 CH(CH3)2]CO-Phe-Ala-NH2]
IC50 ([1]; synthetic substrate Dnp-Pro-Leu-Gly-Leu-Trp-Ala-D-Arg-NH2, read-out: 50% inhibition (IC50)): ~0.01 µM

Molecule: CC(=O)N[C@@H](CS)C(=O)O [N-acetylcysteine]
IC50 ([1]; natural substrate (collagen), read-out: IC50): < 10000 µM
IC50 ([1]; synthetic substrate, read-out: IC50): 2700 µM

Molecule: CC(CN1CC(=O)NC(=O)C1)N1CC(=O)NC(=O)C1 (centres unmarked) [Razoxane]
collagenase production (collagenase): inhibited collagenase production
TIMP production (TIMP): stimulated TIMP production

Molecule: O=C([O-])CC(O)(CC(=O)[O-])C(=O)[O-].[Na+].[Na+].[Na+] [sodium citrate]
reversal of inhibition by excess Ca2+ ([1]; excess Ca2+): could be reversed by excess Ca2+

Molecule: doxycycline hyclate
mean percentage of epithelial defects ([3]; 1.5 mg/kg orally daily for 14 days): 50.7%
mean percentage of epithelial defects ([3]; 5 mg/kg orally daily for 14 days): 7.1%
corneal reepithelialization ([3]; 5 mg/kg/day, systemically administered): promotes corneal reepithelialization

Now from value to molecule:

inhibition of collagenase-mediated hydrolysis ([1]; either collagen or the synthetic substrate): did not inhibit
Molecule: O=C1O[C@H]([C@@H](O)CO)C([O-])=C1O.[Na+] [Sodium ascorbate]

intraocular penetration (sub-conjunctival, retrobulbar and intramuscular, one shot, healthy rabbit eye): best results
Molecule: CCC[C@@H]1C[C@@H](C(=O)N[C@@H]([C@H]2O[C@H](SC)[C@H](O)[C@@H](O)[C@H]2O)[C@H](C)Cl)N(C)C1 [clindamycin]

Doxycycline concentration in the cornea versus aqueous humor [2]: exceeded that in the aqueous humor
Vitreous body doxycycline concentration [2]: 0.3 microgram/g
penetrability into the tissues [2]: good penetrability
antibiotic concentration in all vascularized ocular structures ([2]; long-lasting): ≥ 1 microgram/g
Molecule: C[C@H]1c2cccc(O)c2C(=O)C2=C(O)[C@]3(O)C(=O)C(C(N)=O)=C(O)[C@@H](N(C)C)[C@@H]3[C@@H](O)[C@@H]21 [doxycycline]

intraocular penetration (rabbit, in vivo): best results
Molecule: spiramycin
